Earlier results, collected in patent publication US8091801B2, “Generation of therapeutic microfoam” (BTG International Limited, priority 1999, dated 2012).

Settings: in water at STP
In the case of `[He]` [Helium], the “Mole Fraction Solubility” value is listed as 0.7 10^−5.
In the case of `O=O` [Oxygen], the “Mole Fraction Solubility” value is listed as 2.3 10^−5.
For `[N-]=[N+]=O` [Nitrous oxide], the “Mole Fraction Solubility” value is listed as 43.7 10^−5.
